Assay: Treatment-emergent adverse events, single dose (part 1)
Assay type: in vivo, human
Procedure: In part 1, Japanese participants were randomized to receive placebo or single dose of ensitrelvir (20, 70, 250, 500, 1,000, and 2,000 mg given to cohorts A, B, C, D, E, and J, respectively), suspended in 0.5% methylcellulose, in the fasted state. Additionally, in cohort C, the effect of food on the pharmacokinetics of ensitrelvir was investigated in a 2-group, 2-period crossover design by administering placebo or ensitrelvir (250 mg) in the fasted or fed (high-fat/high-calorie) state. In part 2, Japanese participants were randomized to receive placebo or multiple doses of ensitrelvir, suspended in 0.5% methylcellulose. The multiple-dose regimens were as follows: once-daily doses of ensitrelvir 375 mg on day 1 and 125 mg on days 2 to 5 (cohort F), or 750 mg on day 1 and 250 mg on days 2 to 6 (cohort G) in the fasted state. White participants were randomized to receive placebo or multiple doses of ensitrelvir. The multiple-dose regimens were as follows: once-daily doses of ensitrelvir 375 mg on day 1 and 125 mg on days 2 to 5 (cohort H). Each cohort included 11 participants. In cohort G, the effect of ensitrelvir on the pharmacokinetics of midazolam (syrup) was evaluated in an open label self-controlled crossover design. Midazolam 2 mg alone was administered 2 days prior to initiating ensitrelvir administration (on day −2) and midazolam was coadministered on day 6 with placebo or ensitrelvir in the fasted state to participants following once-daily doses for 5 days of placebo (days 1 to 5) or ensitrelvir (750 mg on day 1 and 250 mg on days 2–5).
The nature, frequency, and severity of TEAEs were evaluated and recorded.

[1] = Cohort A 20 mg single dose, n = 6
[2] = Cohort B 70 mg single dose, n = 6
[3] = Cohort C (fasted) 250 mg single dose, n = 8
[4] = Cohort D 500 mg single dose, n = 6
[5] = Cohort E 1,000 mg single dose, n = 6
[6] = Cohort J 2,000 mg single dose, n = 6

With `Cn1cnc(Cn2c(=O)[nH]/c(=N\c3cc4cn(C)nc4cc3Cl)n(Cc3cc(F)c(F)cc3F)c2=O)n1` [Ensitrelvir, ensitrelvir fumaric acid] the “Abdominal pain, Events” value [1] was 0, the “Abdominal pain, n (%)” value [1] was 0 and the “Chills, Events” value [1] was 0. The “Chills, n (%)” value [1] was 0, the “Feces soft, Events” value [1] was 0 and the “Feces soft, n (%)” value [1] was 0. The “Gastrointestinal disorders, Events” value [1] was 0, the “Gastrointestinal disorders, n (%)” value [1] was 0 and the “General disorders and administration site conditions, Events” value [1] was 0. The “General disorders and administration site conditions, n (%)” value [1] was 0, the “Headache, Events” value [1] was 0 and the “Headache, n (%)” value [1] was 0. The “High density lipoprotein cholesterol decreased, Events” value [1] was 0, the “High density lipoprotein cholesterol decreased, n (%)” value [1] was 0 and the “Investigations, Events” value [1] was 0. The “Investigations, n (%)” value [1] was 0, the “Nausea, Events” value [1] was 0 and the “Nausea, n (%)” value [1] was 0. The “Nervous system disorders, Events” value [1] was 0, the “Nervous system disorders, n (%)” value [1] was 0 and the “Participants with any TEAE, Events” value [1] was 0. The “Participants with any TEAE, n (%)” value [1] was 0, the “Vomiting, Events” value [1] was 0 and the “Vomiting, n (%)” value [1] was 0. For the same compound, the “Abdominal pain, Events” value [2] was 1, the “Abdominal pain, n (%)” value [2] was 1 (16.7) and the “Chills, Events” value [2] was 0. For the same compound, the “Chills, n (%)” value [2] was 0, the “Feces soft, Events” value [2] was 0 and the “Feces soft, n (%)” value [2] was 0. For the same compound, the “Gastrointestinal disorders, Events” value [2] was 1, the “Gastrointestinal disorders, n (%)” value [2] was 1 (16.7) and the “General disorders and administration site conditions, Events” value [2] was 0. The “General disorders and administration site conditions, n (%)” value [2] was 0, the “Headache, Events” value [2] was 1 and the “Headache, n (%)” value [2] was 1 (16.7). For the same compound, the “High density lipoprotein cholesterol decreased, Events” value [2] was 0, the “High density lipoprotein cholesterol decreased, n (%)” value [2] was 0 and the “Investigations, Events” value [2] was 0. The “Investigations, n (%)” value [2] was 0, the “Nausea, Events” value [2] was 0 and the “Nausea, n (%)” value [2] was 0. For the same compound, the “Nervous system disorders, Events” value [2] was 1, the “Nervous system disorders, n (%)” value [2] was 1 (16.7) and the “Participants with any TEAE, Events” value [2] was 2. The “Participants with any TEAE, n (%)” value [2] was 2 (33.3), the “Vomiting, Events” value [2] was 0 and the “Vomiting, n (%)” value [2] was 0. For the same compound, the “Abdominal pain, Events” value [3] was 0, the “Abdominal pain, n (%)” value [3] was 0 and the “Chills, Events” value [3] was 0. The “Chills, n (%)” value [3] was 0, the “Feces soft, Events” value [3] was 0 and the “Feces soft, n (%)” value [3] was 0. For the same compound, the “Gastrointestinal disorders, Events” value [3] was 0, the “Gastrointestinal disorders, n (%)” value [3] was 0 and the “General disorders and administration site conditions, Events” value [3] was 0. For the same compound, the “General disorders and administration site conditions, n (%)” value [3] was 0, the “Headache, Events” value [3] was 0 and the “Headache, n (%)” value [3] was 0. For the same compound, the “High density lipoprotein cholesterol decreased, Events” value [3] was 0, the “High density lipoprotein cholesterol decreased, n (%)” value [3] was 0 and the “Investigations, Events” value [3] was 0. The “Investigations, n (%)” value [3] was 0, the “Nausea, Events” value [3] was 0 and the “Nausea, n (%)” value [3] was 0. For the same compound, the “Nervous system disorders, Events” value [3] was 0, the “Nervous system disorders, n (%)” value [3] was 0 and the “Participants with any TEAE, Events” value [3] was 0. The “Participants with any TEAE, n (%)” value [3] was 0, the “Vomiting, Events” value [3] was 0 and the “Vomiting, n (%)” value [3] was 0. For the same compound, the “Abdominal pain, Events” value [4] was 0, the “Abdominal pain, n (%)” value [4] was 0 and the “Chills, Events” value [4] was 0. For the same compound, the “Chills, n (%)” value [4] was 0, the “Feces soft, Events” value [4] was 0 and the “Feces soft, n (%)” value [4] was 0. The “Gastrointestinal disorders, Events” value [4] was 0, the “Gastrointestinal disorders, n (%)” value [4] was 0 and the “General disorders and administration site conditions, Events” value [4] was 0. The “General disorders and administration site conditions, n (%)” value [4] was 0, the “Headache, Events” value [4] was 0 and the “Headache, n (%)” value [4] was 0. For the same compound, the “High density lipoprotein cholesterol decreased, Events” value [4] was 0, the “High density lipoprotein cholesterol decreased, n (%)” value [4] was 0 and the “Investigations, Events” value [4] was 0. The “Investigations, n (%)” value [4] was 0, the “Nausea, Events” value [4] was 0 and the “Nausea, n (%)” value [4] was 0. For the same compound, the “Nervous system disorders, Events” value [4] was 0, the “Nervous system disorders, n (%)” value [4] was 0 and the “Participants with any TEAE, Events” value [4] was 0. For the same compound, the “Participants with any TEAE, n (%)” value [4] was 0, the “Vomiting, Events” value [4] was 0 and the “Vomiting, n (%)” value [4] was 0. The “Abdominal pain, Events” value [5] was 0, the “Abdominal pain, n (%)” value [5] was 0 and the “Chills, Events” value [5] was 0. The “Chills, n (%)” value [5] was 0, the “Feces soft, Events” value [5] was 0 and the “Feces soft, n (%)” value [5] was 0. For the same compound, the “Gastrointestinal disorders, Events” value [5] was 0, the “Gastrointestinal disorders, n (%)” value [5] was 0 and the “General disorders and administration site conditions, Events” value [5] was 0. For the same compound, the “General disorders and administration site conditions, n (%)” value [5] was 0, the “Headache, Events” value [5] was 0 and the “Headache, n (%)” value [5] was 0. The “High density lipoprotein cholesterol decreased, Events” value [5] was 6, the “High density lipoprotein cholesterol decreased, n (%)” value [5] was 6 (100) and the “Investigations, Events” value [5] was 6. For the same compound, the “Investigations, n (%)” value [5] was 6 (100), the “Nausea, Events” value [5] was 0 and the “Nausea, n (%)” value [5] was 0. The “Nervous system disorders, Events” value [5] was 0, the “Nervous system disorders, n (%)” value [5] was 0 and the “Participants with any TEAE, Events” value [5] was 6. For the same compound, the “Participants with any TEAE, n (%)” value [5] was 6 (100), the “Vomiting, Events” value [5] was 0 and the “Vomiting, n (%)” value [5] was 0. For the same compound, the “High density lipoprotein cholesterol decreased, n (%)” value (Cohort E 1,000 mg single dose, n = 6, listed as ensitrelvir) was 6/6, the “Abdominal pain, Events” value [6] was 0 and the “Abdominal pain, n (%)” value [6] was 0. The “Chills, Events” value [6] was 1, the “Chills, n (%)” value [6] was 1 (16.7) and the “Feces soft, Events” value [6] was 1. For the same compound, the “Feces soft, n (%)” value [6] was 1 (16.7), the “Gastrointestinal disorders, Events” value [6] was 3 and the “Gastrointestinal disorders, n (%)” value [6] was 1 (16.7). The “General disorders and administration site conditions, Events” value [6] was 1, the “General disorders and administration site conditions, n (%)” value [6] was 1 (16.7) and the “Headache, Events” value [6] was 1. For the same compound, the “Headache, n (%)” value [6] was 1 (16.7), the “High density lipoprotein cholesterol decreased, Events” value [6] was 6 and the “High density lipoprotein cholesterol decreased, n (%)” value [6] was 6 (100). For the same compound, the “Investigations, Events” value [6] was 6, the “Investigations, n (%)” value [6] was 6 (100) and the “Nausea, Events” value [6] was 1. The “Nausea, n (%)” value [6] was 1 (16.7), the “Nervous system disorders, Events” value [6] was 1 and the “Nervous system disorders, n (%)” value [6] was 1 (16.7). The “Participants with any TEAE, Events” value [6] was 11, the “Participants with any TEAE, n (%)” value [6] was 6 (100) and the “Vomiting, Events” value [6] was 1. The “Vomiting, n (%)” value [6] was 1 (16.7), the “High density lipoprotein cholesterol decreased, n (%)” value (Cohort J 2,000 mg single dose, n = 6, listed as ensitrelvir) was 6/6 and the overall tolerability (single and multiple doses, all doses tested, healthy participants) was “well tolerated across all doses tested”. The “severity of adverse events” value (single dose 20–2,000 mg, cohorts A–E and J) was “a All adverse events were mild”.

Source: PMC9578392, “Safety, Tolerability, and Pharmacokinetics of the Novel Antiviral Agent Ensitrelvir Fumaric Acid, a SARS-CoV-2 3CL Protease Inhibitor, in Healthy Adults” (Antimicrobial Agents and Chemotherapy, 2022)
